According to patent EP1263429B1, “ANTIVIRAL THERAPY” (Universiteit Utrecht, priority 2000, dated 2001):

How the values were obtained:
Type in all cases: cell-based
HIV-1 = test: IC50 determination of an anti-viral (Table 3); conditions: Human immunodeficiency virus 1
HIV-1Ba-L [1] = test: HIV-1 replication in acutely infected PBMC, p24-core antigen ELISA; conditions: for inhibition at 30 µM: 30 µM APHS
Procedure: Peripheral blood mononuclear cell (PBMC) fractions are isolated from heparinised blood from HIV-1-, HIV-2- and hepatitis B- seronegative donors (Blood-bank, Utrecht, the Netherlands) by Ficoll-Isopaque gradient separation. Cells are washed twice, stimulated with 4 µg/ml phytohemagglutinin (PHA), and cultured in RPMI-1640 medium supplemented with 5 mM Hepes, 19 mM sodium bicarbonate, 10 µg/ml gentamicin, and 10% heat-inactivated fetal calf serum at a concentration of 1 x 10^6 cells/ml.
(§1) HIV-1 strain Ba-L is grown to high titer in MDM. The 50% tissue culture infectious dose (TCID50) of the virus stock is determined by endpoint dilution with serial fourfold dilutions in a 96-well microtiter plate on MDM. HIV-1 strain AT is grown to high titer in PHA-stimulated PBMC. The TCID50 of the virus stock is determined by endpoint dilution with serial fourfold dilutions in a 96-well microtiter plate on PBMC.
MDM, and PBMC, were incubated with HIV at a multiplicity of infection of 0.02, and 0.006 or 0.001, respectively. After two hours cells are washed to remove unbound virus and cultured for 4 to 7 days in different concentrations of the drug under investigation. On day 4, 5 and 7, 0.01 ml of supernatant is removed from the culture and virus in culture supernatant is inactivated in a final concentration of 0.05% empigen (Calbiochem-Novabiochem Co., La Jolla, CA). The presence of HIV-1 in the inactivated supernatant is monitored by checking for the p24-core antigen using the enzyme-linked immunosorbent assay (ELISA) system of John Moore.
(A, B) Peripheral blood mononuclear cells (PBMC) were isolated from heparinized blood from HIV-1-, HIV-2-, and hepatitis B-seronegative donors and obtained on Ficoll-Hypaque density gradients. Cells were washed twice, stimulated with 5 µg/ml phytohemagglutinin (PHA), and cultured m RPMI-1640 medium supplemented with 5 mM Hepes, 19 mM sodium bicarbonate, 10 µg/mL gentamicin, and 10% heat-inactivated fetal calf serum (PBMC culture medium) at a concentration of 2 x 10^6 cells/ml. After 3 days of incubation stimulated PBMC were recovered from the flasks and infected for 2 hours with HIV-1Ba-L at a multiplicity of infection of 0.01. Afterwards, HIV-infected and mock-infected PBMC were washed twice to remove unbound virus. (A) PBMC were cultured at a density of 6 x 10^5 cells/well with different concentrations of APHS and after 5 days of incubation samples of culture supernatant were collected. (B) PBMC were cultured in suspension at a concentration of 2 x 10^6 cells/ml in Teflon flasks in PBMC culture medium. After 5 days of incubation PBMC were recovered from Teflon flasks, washed twice to remove unbound virus and cultured at a density of 6 x 10^5 PBMC / well with different concentrations of APHS. After 2 days of incubation samples of culture supernatant were collected. p24-core antigen production was quantified using the enzyme-linked immunosorbent assay (ELISA) system of John Moore. […] (C, D) PBMC were isolated from heparinized blood from HIV-1-, HIV-2-, and hepatitis B-seronegative donors and obtained on Ficoll-Hypaque density gradients. PBMC were washed twice and monocytes were purified by countercurrent centrifugal elutriation. Cells were >98% monocytes by criteria of cell morphology on May-Grünwald-Giemsa-stained cytosmears and by nonspecific esterase staining using alpha-naphtylacetate as substrate. […]

HIV-1Ba-L [2] = test: HIV-1 replication in acutely infected monocyte-derived macrophages (MDM), p24-core antigen ELISA
Procedure: PBMC are isolated from heparinized blood from HIV-1-, HIV-2-, and hepatitis B-seronegative donors and obtained on Ficoll-Hypaque density gradients. Cells are washed twice and monocytes are purified by countercurrent centrifugal elutriation. Cells are >98% monocytes by criteria of cell morphology on May-Grünwald-Giemsa-stained cytosmears and by nonspecific esterase staining using alpha-naphtylacetate (Sigma Chemical Co., St. Louis, MO) as substrate. Monocytes are cultured in suspension at a concentration of 2 x 10^6 cells/ml in Teflon flasks (Nalgene, Rochester, NY) in Iscove's modified Dulbeco's medium (IMDM) with 10% heat-inactivated human AB serum negative for anti-HIV antibodies, […], and […] (Sigma) for 7 days.
as §1, with “HIV-1 strain AT is grown to high titer in PHA-stimulated PBMC.” left out
MDM, and PBMC, were incubated with HIV at a multiplicity of infection of 0.02, and 0.006 or 0.001, respectively. […] The presence of HIV-1 in the inactivated supernatant is monitored by checking for the p24-core antigen using the enzyme-linked immunosorbent assay (ELISA) system of John Moore. […]

CCCCC#CCSc1ccccc1OC(C)=O [APHS, o-(acetoxy-phenyl)hept-2-ynyl sulphide]
IC50 (HIV-1): 10 µM
APHS concentrations that inhibit HIV-1 production (HIV-1Ba-L [1]; Fig 4, PBMC infected with HIV-1AT or HIV-1BaL, 4 and 5 days of incubation): above 1 µM
APHS concentrations that inhibit HIV-1Ba-L replication (HIV-1Ba-L [1]; Fig 6A, acute infection of PBMC, multiplicity of infection 0.01, 5 days of incubation): above 3 µM
inhibition at 30 µM (HIV-1Ba-L [1]; Human immunodeficiency virus 1, 120 h, Fig 6A, acute infection of PBMC, multiplicity of infection 0.01, 5 days): 100%
inhibition at 1 µM (HIV-1Ba-L [1]; Human immunodeficiency virus 1, PBMC, read-out: inhibition of HIV-1BaL production): 50%
inhibition at 30 µM (HIV-1Ba-L [1]; Human immunodeficiency virus 1, Fig 4, PBMC, read-out: inhibition of HIV-1BaL replication): 100%
APHS concentrations that inhibit p24 production by acutely infected MDM (HIV-1Ba-L [2]; 96 h): above 3 :M
inhibition at 30 µM (HIV-1Ba-L [2]; Human immunodeficiency virus 1, Macrophage, 30 µM APHS, Fig 2, MDM, multiplicity of infection 0.02): 88%
